Values of other authors in PMC10499419 (Clinical and Translational Science, 2023).

Test system: healthy subjects

## CN1C(=O)[C@@H](NC(=O)c2nnc(Cc3ccccc3)[nH]2)COc2ccccc21 [GSK2982772]
  Tolerability in healthy subjects: well‐tolerated
